Measurements published in patent US9173875B2, “Treatment for nicotine-induced lung disease using peroxisome proliferator-activated receptor gamma agonists” (Los Angeles Biomedical Research Institute at Harbor-UCLA …, priority 2006, dated 2015).
Like-named read-outs stand apart in the source and are kept apart here.

How the values were obtained:
ATII cells [1] = assay: Western analysis of CCT-α and SP-B in ATII cells treated in vitro; format: cell-based, rat
Description: Protein extraction and Western blot analysis for SP-B and choline phosphate cytidylyltransferase-α (CCT-α) were performed using standard methods. […] Equal amounts of the protein from the supernatant were dissolved in electrophoresis sample buffer and subjected to SDS-polyacrylamide (4-12% gradient) gel electrophoresis followed by electrophoretic transfer to a nitrocellulose membrane. The membrane was blocked with 5% milk in 1× Tris-buffered saline containing 0.1% Tween 20 for 1 h and then incubated with rabbit anti-human SP-B polyclonal antibody (1:1,000 dilution; Chemicon) overnight at 4° C. The antibody for CCT-α (1:2,000 dilution) was a kind gift from Dr. Mallampalli (University of Iowa, Iowa City, Iowa). Subsequently, the membrane was washed with 1× Tris-buffered saline+0.1% Tween 20 and incubated with a 1:3,000 dilution of anti-rabbit horseradish peroxidase-linked whole antibody immunoglobulin G (Amersham, Arlington Heights, Ill.) for 1 h at room temperature, washed again, and developed with a chemiluminescent substrate (ECL, Amersham) following the manufacturer's protocol. The density of the SP-B and CCT-α bands was quantified using a scanning densitometer (Eagle Eye, Stratagene).

ATII cells [2] = system: ATII cells
Description: (§1) Isolated ATII cells were cultured in DMEM+10% FBS in 6- and 96-well plates, 100-mm dishes, and T-75 flasks, as needed, and maintained at 37° C. in a humidified incubator containing 5% CO2-95% air. At 80-90% confluence, cells were processed for cell proliferation, differentiation, and metabolic studies (see below).
Briefly, [1,2-^13C2]glucose was purchased with >99% enrichment for the specified carbon positions from Isotech (Miamisburg, Ohio). Lung ATII cells were isolated from embryonic day 20 pups from specified treatment groups and cultured in T-75 tissue culture flasks. […] The [^13C]glucose label is readily incorporated into various metabolites in mammalian cells, including ribonucleic acid (through ribose synthesis), lactate (through glycolysis), glutamate (through the tricarboxylic acid cycle), and palmitate (through the formation of acetyl-CoA). As the molecular weight (atomic mass unit) of these molecules increases on incorporation of the heavier ^13C atoms derived from [1,2,^13C2]glucose, they can be separated and quantitatively analyzed by gas chromatography-mass spectrometry (MS) on the basis of changes in their mass-to-charge ratios (m/z). […]
Fatty acids in the cell culture medium were extracted by saponification of the TRIzol cell extract after removal of the RNA-containing supernatant. […] Palmitate was monitored at ion cluster m/z 270. […]

WI38 cells [3] = system: WI38 cells
fetal rat lung explants = assay: In vitro ATII cell proliferation in lung explants (PCNA and SP-C labeling); format: cell-based; details: nicotine 24 h; P<0.05, n=4
Description: Explants derived from three to five litters of rats were used for each experiment during the course of the studies. Lungs were harvested from fetal rats under sterile conditions. The lung tissue was chopped into −1-mm cubes and incubated in 0.5 ml of Waymouth's MB-252/1 medium containing penicillin (100 U/ml)-streptomycin (100 U/ml) and Fungizone (2.5 μg/ml) in six-well plates while rocking on an oscillating platform (3 cycles/min) in 5% CO2-95% air at 37° C. The explants were allowed to attach for 1-2 h.
Cultured ATII cells or explants were treated with nicotine under various experimental conditions (see below), and cell proliferation was determined by Cell Proliferation Assay (Promega) or dual PCNA and SP-C labeling, respectively (see above).

fetal ATII cells = assay: Ex vivo ATII cell proliferation assay (tetrazolium dye) after in utero nicotine; parameters: species or system Sprague-Dawley rat; details: nicotine 1 mg/kg in utero; vs control, P<0.05, n=6
Description: Pathogen-free timed (embryonic day 0=day of mating) pregnant Sprague-Dawley rats (200-250 g body wt) were obtained from Charles River (Hollister, Calif.) at embryonic day 3 and allowed to acclimatize until embryonic day 6. […] The fetuses were extracted by cesarean section, and the lungs were snap frozen for later analysis or processed for ATII cell or fibroblast culture. […] Louis, Mo.; 0.25 mg/kg). All studies were approved by the Los Angeles Biomedical Research Institute Institutional Review Board and were conducted in accordance with the National Institutes of Health Guide for the Care and Use of Laboratory Animals. ATII cells were isolated using differential adherence in monolayer culture, as described previously (Battenburg et al. (1990) Biochim. Biophys. Acta 960: 441-456). Briefly, three to five […] used per preparation. The fetuses were delivered via cesarean section, and fetal lungs were placed in Hanks' balanced salt solution without calcium and magnesium. […] A Teflon stirring bar was used to further dissociate the lungs by mechanical disruption of the tissue during incubation in a 37° C. water bath. After the tissue was dispersed into a unicellular suspension, the cells were pelleted at 500 g for 10 min at room temperature in a 50-ml polystyrene centrifuge tube. […] The cell suspension was then added to 75-cm^2 (T-75) culture flasks for 30-60 min to allow for differential adherence of lung fibroblasts. The unattached cells were then transferred to another T-75 culture flask for an additional 60 min. After this second culture period, the medium and nonadherent cells were removed from the flask and diluted with 1 vol of culture medium. This diluted suspension was cultured overnight in a T-75 culture flask at 37° C. in a CO2 incubator to allow the ATII cells to adhere. […] According to the manufacturer's protocol, cell proliferation was determined by the tetrazolium dye assay, which is based on the conversion of a tetrazolium salt to a red formazan product by living cells (Cell Proliferation Assay, Promega).

WI38 cells [4] = assay: Reversal experiment, immunofluorescence double staining (ADRP or lipid droplets and αSMA) in WI38 cells; format: cell-based, human
Description: Cells were grown in minimum essential medium (MEM) +10% fetal bovine serum at 37° C. in six-well plates, two well slides, and 60-mm and 100-mm culture dishes, as needed. […] Subsequently, the cells were treated with rosiglitazone (RGZ) (1×10^−5 M) (a PPARγ agonist), PTHrP (5×10^−7 M), or DBcAMP (1×10^−5 M) for 7 days, and the expression of PTHrP receptor, PPARγ, ADRP, calponin, and cSMA was determined by Western analysis and immunohistochemistry. Simultaneously, fibroblast function was characterized by measuring their capacity to take up triglycerides. Some experiments were performed in the presence of a specific PPARγ antagonist, GW9662. Medium containing fresh chemicals was added daily, and at the end of the experimental period the cells were processed as needed.
The lipogenic and myogenic status of cultured WI38 cells was assessed by simultaneous staining for either lipid droplets or ADRP and αSMA. Lipids were detected by using either oil red 0 staining or ADRP expression (polyclonal anti-ADRP 1:500), and αSMA expression was assessed by using anti-αSMA (1:1000, mouse monoclonal IgG2a, Sigma, catalog No. A2547) primary antibody. […] At the end of the experimental period, slides were fixed in freshly prepared 4% paraformaldehyde. […] Slides were rinsed three times for 5 min and then mounted and visualized under a fluorescence microscope.

WI38 cells [5] = details: 7 days, vs control; for change in PTHrP receptor mRNA expression: means±SE
WI38 cells [6] = assay: Reversal experiment, triglyceride (triolein) uptake by WI38 cells; format: cell-based, human; details: nicotine 7 days
WI38 cells [7] = assay: Triglyceride uptake assay ([3H]triolein) in WI38 cells; format: cell-based, human
Description: The human embryonic cell line WI38 was obtained from American Type Culture Collection (Rockville, Md.). Cells were grown in MEM plus 10% FBS at 37° C. in six-well plates, four-well slides, and 60- and 100-mm culture dishes as needed.
The method used to quantitate triglyceride uptake by fetal rat lung fibroblasts has been described previously (Torday et al. (1995) Biochim Biophys Acta 1254: 198-206). Briefly, culture medium was replaced with DMEM containing 20% adult rat serum mixed with [3H]triolein (5 μCi/ml). The cells were incubated at 37° C. in 5% CO2+balance air for 4 h. At the termination of the incubation, the medium was decanted, the cells were rinsed twice with 1 ml of ice-cold MEM, and the cells were removed from the culture plate after a 5- to 10-min incubation with 2 ml of a 0.05% trypsin solution. An aliquot of the cell suspension was taken for protein assay (Bradford (1976) Anal Biochem 72: 248-254), and the remaining cell suspension was extracted for neutral lipid content.

ATII cells [8] = details: nicotine 24 h
ATII cells [9] = assay: Phospholipid synthesis ([3H]choline incorporation) by ATII cells treated in vitro; format: cell-based, rat; details: nicotine 1×10^−9 M, 24 h, in vitro
Description: as §1
Incorporation of [methyl-3H]choline chloride (NEN Dupont) into saturated phosphatidylcholine was determined in monolayers of cultured explants and ATII cells. […] After incubation, explants and cells were washed three times with ice-cold PBS. The explants and the scraped cells were thoroughly homogenized, and the cellular lipids were extracted with chloroform-methanol (2:1) (Bligh and Dyer (1959) Can. J. Biochem. Physiol., 37: 911-917). The organic phase was dried under a stream of nitrogen at 60° C., resuspended in 0.5 ml of carbon tetrachloride containing 3.5 mg of osmium tetroxide, and left at room temperature for 15 min. The reaction mixture was redried under nitrogen and resuspended in 70 μl of chloroform-methanol (9:1, vol/vol). The lipid extracts were transferred to silica gel plates (Kodak, Rochester, N.Y.) and developed in a chloroform-methanolwater (65:25:4) solvent system. Pure dipalmitoyl phosphatidylcholine was used as the chromatographic standard. The developed plates were stained with bromothymol blue, blotted, and vacuum dried for 5 min at 90° C. Chromatogram spots corresponding to the migration of saturated phosphatidylcholine were scraped from the plates and counted by liquid scintillation spectrometry. The amounts of [methyl^3H]choline chloride incorporated into saturated phosphatidylcholine were expressed as disintegrations per minute per milligram of protein.

ATII cells [10] = system: ATII cells; remark: listed apart in the source
[11] = nicotine 1×10^6 M (so in the source)

CN1CCCC1c1cccnc1 (stereo not shown) [nicotine]
SP-B expression (ATII cells [1]; direct nicotine treatment of cultured ATII cells): significant increase | CCT-α protein expression (ATII cells [1]; in vitro nicotine exposure): significant increase | de novo palmitate synthesis or [13C]glucose labeling of acetyl-CoA (ATII cells [2]): did not result in a significant change | ribose synthesis via the oxidative or the nonoxidative pathway (ATII cells [2]): did not alter | expression of nACh receptors α3 and α7 (WI38 cells [3]): significant increases | ATII cell proliferation in lung explants (fetal rat lung explants): significantly increased | ATII cell proliferation, tetrazolium dye assay (fetal ATII cells): almost twofold increase | ADRP, lipid droplet and αSMA staining (WI38 cells [4]): marked decreases in ADRP and lipid droplet staining and a marked increase in αSMA staining | change in PTHrP receptor mRNA expression (WI38 cells [5]; [11]): 40±3% | change in ADRP mRNA expression (WI38 cells [5]; [11]): −47±4% | change in PPAR mRNA expression (WI38 cells [5]; [11]): −37±3% | change in α-SMA mRNA expression (WI38 cells [5]; [11]): +140±5% | change in PTHrP receptor mRNA expression (WI38 cells [5]; nicotine 1×10^−9 M): −33±8% | change in ADRP mRNA expression (WI38 cells [5]; nicotine 1×10^−9 M): −41±8% | change in PPAR mRNA expression (WI38 cells [5]; nicotine 1×10^−9 M): −26±7% | change in α-SMA mRNA expression (WI38 cells [5]; nicotine 1×10^−9 M): +38±4% | triolein uptake (WI38 cells [6]): significant decrease | decrease in triglyceride uptake (WI38 cells [7]; nicotine 1×10^−9 M for 24 h): ~30% | decrease in triglyceride uptake (WI38 cells [7]; nicotine 1×10^−9 M for 7 days): ~50% | ATII cell proliferation, direct stimulation in vitro (ATII cells [8]): no effect | choline incorporation (ATII cells [9]): significantly increased | [13C]glucose labeling of the acetyl-CoA pool (ATII cells [10]; in utero nicotine): modest increase | de novo palmitate synthesis as a function of total palmitate (ATII cells [10]; rat, in vivo): almost doubled | ribose synthesis via the nonoxidative transketolase pathway (ATII cells [10]; rat, in vivo): significant decrease | ribose synthesis via the oxidative glucose-6-phosphate dehydrogenase pathway (ATII cells [10]; rat, in vivo): significant increase
